From patent publication US20230142739A1, “PROTEIN-PROTEIN INTERACTION STABILIZERS” (The Regents of the University of California, priority 2020, published 2023)
pEC50: −log10 of the molar value. Where two headings read alike, the source gives them in different places. Non-standard residues stand in square brackets, D forms with d. Residues, ends and D or L forms follow the SMILES beside them. *: point of attachment. 5FAM = O=C1OC2(c3ccc(O)cc3Oc3cc(O)ccc32)c2ccc(C(=O)*)cc21; pT = C[C@@H](OP(=O)(O)O)[C@H](N)C(=O)O; pS = N[C@@H](COP(=O)(O)O)C(=O)O

Assays:
Type in all cases: binding
14-3-3σ(C42) = biological target: T1, 14-3-3σ(C42) (Homo sapiens, UniProt P31947, C38N/N42C); experiment: Fluorescence anisotropy titration of 14-3-3σ(C42) to fluorescein-labeled partner peptides
T1 construct: with a truncated C-terminus after T231; His6 (N, cleaved yes); made in house; host or cells: E. coli NiCo21 (DE3), pPROEX HTb
T1 sequence (P31947 1-231 C38N/N42C): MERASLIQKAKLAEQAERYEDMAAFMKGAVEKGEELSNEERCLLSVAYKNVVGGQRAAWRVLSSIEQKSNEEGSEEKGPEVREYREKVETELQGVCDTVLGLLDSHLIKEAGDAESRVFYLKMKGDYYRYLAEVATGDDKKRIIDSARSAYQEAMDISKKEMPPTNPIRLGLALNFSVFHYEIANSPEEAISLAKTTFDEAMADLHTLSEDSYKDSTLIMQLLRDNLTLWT
Procedure: The 14-3-3/ER stabilizer FC (Fusicoccin) inhibits estradiol dependent signaling. FC (a natural product) inhibits dimerization of E2/ER and tamoxifen/ER. FC also blocks DNA binding and transcription (482) (PNAS May 28, 2013 110 (22) 8894-8899). Disulfide trapping for stabilizers of 14-3-3σ/ERα-pp (15-mer phosphopeptide representing the 14-3-3σ binding motif of ERα), was measured (J. Am. Chem. Soc. 2019, 141, 8, 3524-3531, FIG. 1b). Different cysteine residues yield different 14-3-3/client stabilizing chemical moieties. At each tethering residue, bound chemical moieties can be competitive with peptide, noncompetitive, or cooperative (J. Am. Chem. Soc. 2019, 141, 8, 3524-3531, FIG. 1c). […] 14-3-3σ (C42) expected mass: 26509 Da, βME capped mass: 26585 Da, protein-disulfide conjugate mass: 26795 Da. LC/MS dose response curves showing percentage of protein conjugate formation for titrations of disulfides to 14-3-3σ (C42) apo and bound to ERα-pp, were measured. […] LC/MS dose response curves showing percentage of protein conjugate formation for titrations of disulfides to 14-3-3σ (C42) apo and bound to ERα-pp, were measured. […] Dose-response curve of Fragment 1, which induces ERα binding, were measured (J. Am. Chem. Soc. 2019, 141, 8, 3524-3531, FIG. 2a-2b, supporting information). Small molecules stabilize 14-3-3σ/Erα-pp binding. […] Schematic of experimental design and Plot of anisotropy (mean+SD) for titrations of Frag001, Frag002, FC-A (natural product fusicoccane-A), or DMSO control to fluorescein-Erα-pp and 1 μM 14-3-3σ (C42) (J. Am. Chem. Soc. 2019, 141, 8, 3524-3531, FIG. 3a-3b). Dose-response curves were obtained by MS by analyzing % tethering for titrations of Fragment 2 to 14-3-3σ apo (− peptide;) or bound to different interaction partner-derived peptide motifs; ERα-pp ( ), TASK3-pp ( ), ExoS ( ) or TAZ-pp ( ), starting from 1 mM (J. Am. Chem. Soc. 2019, 141, 8, 3524-3531, FIG. 4b). LC/MS screening data of hits for 14-3-3σ (C42)+/−ERα-pp was collected. The deconvoluted LC/MS spectra of disulfide fragments bound to 14-3-3σ (C42) alone or in complex with ERα-pp were determined with 14-3-3σ (C42) expected mass: 26509 Da, βME capped mass: 26585 Da, protein-disulfide conjugate mass: between 26752-26919 Da. Fragments bound preferentially in the presence of ERα-pp: 959996 (1), 916971, and 917137 were termed ‘cooperative’. […] Fluorescence anisotropy (r) of fluorescein-ERα-pp versus concentration of 6 or FC-A binding to 14-3-3σ(C42) or 14-3-3σ(C45) was tested. […]
Fluorescence Anisotropy. […] Fluorescence anisotropy measurements were performed directly and after overnight incubation at room-temperature, using a Tecan Infinite F500 plate reader (filter set λex: 485±20 nm, λem: 535±25 nm). […]

Pin1_72/14-3-3γ = biological target: T2, Pin1_72/14-3-3γ (Homo sapiens, UniProt P61981+Q13526); experiment: Fluorescence anisotropy protein titration, Pin1_72/14-3-3γ at constant compound; settings: based on internal DMSO control and 100 μM fragment
T2 construct: the full length 14-3-3γ was dialysis against 25 mM HEPES pH 7.5; made in house; host or cells: E. coli BL21(DE3), pPROEX HTb
Description: Inspired by the binding poses of 3 and 9 we combined their structural features to improve stabilization. […] In case of complex stabilization, a left shift of apparent KD values is expected, here described as stabilization factors (SF).
(§1) Fluorescence Anisotropy (FA) Assays.

Pin1_72/14-3-3 complex = biological target: T3, Pin1_72/14-3-3 complex (Homo sapiens, UniProt P61981); experiment: Fluorescence anisotropy compound titration, Pin1_72/14-3-3 (CC50)
T3 construct: the full length 14-3-3γ was dialysis against 25 mM HEPES pH 7.5; made in house; host or cells: E. coli BL21(DE3), pPROEX HTb
T3 sequence (P61981 1-247): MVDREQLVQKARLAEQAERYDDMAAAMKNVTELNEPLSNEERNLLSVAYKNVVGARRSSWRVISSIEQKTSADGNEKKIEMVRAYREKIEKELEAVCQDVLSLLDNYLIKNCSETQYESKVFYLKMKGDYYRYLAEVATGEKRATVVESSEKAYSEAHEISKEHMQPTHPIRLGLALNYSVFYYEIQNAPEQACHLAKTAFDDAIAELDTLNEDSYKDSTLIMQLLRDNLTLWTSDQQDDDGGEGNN
Procedure: Site-Directed Shift base fragment Screening. […] As measure of activity the inflection point of the curve was determined, representing the half-maximum complex formation (CC50).
as §1

14-3-3/Pin1_72 complex = biological target: T4, 14-3-3/Pin1_72 complex (Homo sapiens, UniProt P61981); experiment: Cooperativity analysis, 14-3-3 titrations at varied constant fragment concentration
T4 construct: the full length 14-3-3γ was dialysis against 25 mM HEPES pH 7.5; made in house; host or cells: E. coli BL21(DE3), pPROEX HTb
Description: Cooperativity in ternary complex formation. In contrast to PPI inhibition, where affinity to one of the protein pockets is the driving force for drug development, design of molecular glues is driven by cooperative ternary complex formation. Both CC50 and SF values are concentration dependent values and might differ based on assay design. […] Cooperative complex formation is often accompanied by structural changes of the interface of a complex which translates to increased stability of the ternary com-plex. In order to assess cooperativity of the ternary complex, fragments 13, 23, 27 and 28 were selected for cooper-activity analysis. The α-factor of the fragments were determined using 14-3-3 titrations in the presence of varied, but constant concentration of fragment in a dose-dependent manner. […] Further, the interval of change in stabilization further describes the systems cooperative behaviour.
However, at higher concentration regimes significant assay interference was observed, probably due to compound aggregation. Fragments 23, 27 and 28 all reached saturation or approached saturation enabling accurate determination of α-factor. […] KD remains constant also at higher concentrations of FC-A, indicating non-specific effects.

[1] = biological target: T5, 14-3-3σ(C42)/ERα-pp complex (Homo sapiens, UniProt P31947, C38N/N42C); experiment: Disulfide tethering primary screen, intact protein LC/MS, protein-peptide complex
T5 construct: with a truncated C-terminus after T231; His6 (N, cleaved yes); made in house; host or cells: E. coli NiCo21 (DE3), pPROEX HTb
Procedure: Apo-14-3-3σ or the 14-3-3σ/ERα-pp complex was screened against a 1600-member disulfide library under mildly reducing conditions (100 μM betamercaptoethanol; βME). Conjugate formation for each individual reaction was analyzed by intact protein MS. Three peaks observed in mass spectra corresponded to apo, βME-capped, and fragment-conjugated 14-3-3σ. The ‘percent tethering’, defined as the intensity of the fragment-specific conjugate protein peak divided by the sum of the intensities for all protein peaks, was calculated for each individual experiment using an automated pipeline. (492)
Disulfide Tethering screening and data processing. The primary screening was performed by incubating the target with individual compounds in a 384-well plate format. A custom library of 1600 disulfide-containing fragments of the UCSF Small Molecule Discovery Center (SMDC), synthesized as previously reported, was available as 50 mM stock solutions in DMSO. (496, 497) For screening, 14-3-3σ wild-type and Cys-mutants were diluted to 100 nM in buffer (10 mM Tris, 100 μM betamercaptoethanol (βME), pH 8.0) and plated in 384-well plates (15 μL/well). 30 nL of each fragment was pinned from the library master plates into the protein samples using a Biomek FX (Beckman) to give a final concentration of 100 μM. The duplicate experiments additionally contained 200 nM ERα-pp. The reaction mixtures were incubated for 3 hours at RT before being subjected to LC/MS (I-class Acquity UPLC/Xevo G2-XS Quadrupole Time of Flight mass spectrometer, Waters). Data collection and automated processing followed a custom workflow, as previously described. (492) All compounds described in the text were from the same lot as the original screening material.

CC[C@H](C)[C@H](NC(=O)[C@H](Cc1ccc(O)cc1)NC(=O)[C@H](Cc1ccc(O)cc1)NC(=O)[C@H](CCCCN)NC(C)=O)C(=O)N[C@H](C(=O)NCC(=O)N[C@@H](CCC(=O)O)C(=O)N[C@@H](C)C(=O)N[C@@H](CCC(=O)O)C(=O)NCC(=O)N[C@@H](Cc1ccccc1)C(=O)N1CCC[C@H]1C(=O)N[C@@H](C)C(=O)N[C@H](C(=O)N[C@H](C(=O)O)C(C)C)[C@@H](C)OP(=O)(O)O)[C@@H](C)O [ERα-pp] (Ac-KYYITGEAEGFPA[pT]V-OH)
pEC50 (14-3-3σ(C42)): 6.52

CC(C)C[C@H](NC(=O)CNC(=O)[C@H](CCC(N)=O)NC(=O)CNC(=O)[C@H](Cc1c[nH]cn1)NC(=O)CNC(=O)[C@H](CO)NC(=O)c1ccc2c(c1)C(=O)OC21c2ccc(O)cc2Oc2cc(O)ccc21)C(=O)N[C@@H](CC(C)C)C(=O)N[C@@H](CC(=O)O)C(=O)N[C@@H](C)C(=O)N[C@@H](CC(C)C)C(=O)N[C@@H](CC(=O)O)C(=O)N[C@@H](CC(C)C)C(=O)N[C@@H](C)C(=O)N[C@@H](CO)C(N)=O [ExoS]
pEC50 (14-3-3σ(C42)): 4.95

O=Cc1ccc(-n2ccnc2)c(Cl)c1 [L2]
SF (fold stabilization) (Pin1_72/14-3-3γ): 0.8 | activity in FA assay (Pin1_72/14-3-3 complex): significant complex formation

CC(C)[C@H](NC(=O)[C@H](COP(=O)(O)O)NC(=O)[C@H](CCCCN)NC(=O)[C@H](CCCNC(=N)N)NC(=O)[C@H](CCCNC(=N)N)NC(=O)c1ccc2c(c1)C(=O)OC21c2ccc(O)cc2Oc2cc(O)ccc21)C(=O)O [TASK3-pp, KRRKpS^373V-OH] (5FAM-RRK[pS]V-OH)
pEC50 (14-3-3σ(C42); fluorescein-labeled peptide): 6.70

CC(C)C[C@H](NC(=O)[C@H](CCC(N)=O)NC(=O)[C@H](CC(C)C)NC(=O)[C@H](CO)NC(=O)[C@H](C)NC(=O)[C@@H]1CCCN1C(=O)[C@H](CO)NC(=O)[C@H](COP(=O)(O)O)NC(=O)[C@H](Cc1c[nH]cn1)NC(=O)[C@H](CO)NC(=O)[C@H](CCCNC(=N)N)NC(=O)c1ccc2c(c1)C(=O)OC21c2ccc(O)cc2Oc2cc(O)ccc21)C(=O)NCC(=O)N[C@H](C(N)=O)[C@@H](C)O [TAZ-pp, RSHpS^89SPASLQ] (5FAM-RSH[pS]SPASLQLGT-NH2)
pEC50 (14-3-3σ(C42); fluorescein-labeled peptide): 5.66

O=Cc1ccc(-n2ccnc2-c2ccccc2)cc1C(F)(F)F [compound 14, 4-(2-phenyl-1H-imidazol-1-yl)-2-(trifluoromethyl)benzaldehyde]
SF (fold stabilization) (Pin1_72/14-3-3γ): 1.2

O=Cc1ccc(-n2ccnc2-c2ccccc2)cc1O [compound 19, 2-hydroxy-4-(2-phenyl-1H-imidazol-1-yl)benzaldehyde]
SF (fold stabilization) (Pin1_72/14-3-3γ): 4.9

O=Cc1ccc(-n2ccnc2-c2ccccc2Br)cc1Br [compound 23, 2-bromo-4-(2-(2-bromophenyl)-1H-imidazol-1-yl)benzaldehyde]
SF (fold stabilization) (Pin1_72/14-3-3γ): 18.9 | cooperativity factor (α-factor) (14-3-3/Pin1_72 complex): approximately 60

O=Cc1ccc(-n2ccnc2-c2ccc(O)cc2)cc1Br [compound 25, 2-bromo-4-(2-(4-hydroxyphenyl)-1H-imidazol-1-yl)benzaldehyde]
activity in FA assay (Pin1_72/14-3-3 complex): limited effect

NCCSSCCCC(=O)NCC(c1ccccc1)c1ccccc1 [compound 916971]
hit category (binding in presence vs absence of ERα-pp) [1]: cooperative

CN(C)CCSSCCNC(=O)c1ccccc1Sc1ccccc1C#N [compound 917137]
hit category (binding in presence vs absence of ERα-pp) [1]: cooperative

CN(C)CCSSCCNC(=O)C1CCN(C(=O)c2ccccc2NC(=O)c2ccccc2)CC1 [compound 917805]
hit category (binding in presence vs absence of ERα-pp) [1]: neutral

CN(C)CCSSCCn1cc(CN2C(=O)C(=O)c3ccccc32)nn1 [compound 957838]
hit category (binding in presence vs absence of ERα-pp) [1]: neutral
